Data published in patent publication US20090197893A1 (Bristol-Myers Squibb Company, priority 2005, published 2009).
Where two headings read alike, the source gives them in different places.

Legend:
[1] = Plasma pharmacokinetics in patients; format: in vivo, human; conditions: T315I patients; FIG. 2b
[2] = target: p-glycoprotein (Homo sapiens, UniProt P08183); conditions: cited from earlier work
[3] = test system: patients with advanced CML or Ph+ ALL with imatinib resistance/intolerance; experiment: Dasatinib dose escalation clinical trial: hematologic response; conditions: for Hematologic response: CHR / Hematologic response: Major HR / Hematologic response: NEL / Hematologic response: Minor HR: patients n (%); for patients who responded: p=0.049
[4] = test system: patients with advanced CML or Ph+ ALL with imatinib resistance/intolerance; experiment: Dasatinib dose escalation clinical trial: cytogenetic response; conditions: for Cytogenetic response: CCyR / Cytogenetic response: Major CyR / Cytogenetic response: Minimal CyR / Cytogenetic response: Overall CyR / Cytogenetic response: PCyR / Cytogenetic response: Minor CyR: patients n (%)
[5] = AP (N = 11), regardless of relationship to treatment, patients n (%)
[6] = AP-CML (N = 11), patients n (%)
[7] = LBC/ALL (N = 10), patients n (%)
[8] = LBC/ALL (N = 10), regardless of relationship to treatment, patients n (%)
[9] = LBC/Ph+ ALL (N = 10), patients n (%)
[10] = MBC N = (23), regardless of relationship to treatment, patients n (%)

p-glycoprotein, sequence (P08183 whole entry): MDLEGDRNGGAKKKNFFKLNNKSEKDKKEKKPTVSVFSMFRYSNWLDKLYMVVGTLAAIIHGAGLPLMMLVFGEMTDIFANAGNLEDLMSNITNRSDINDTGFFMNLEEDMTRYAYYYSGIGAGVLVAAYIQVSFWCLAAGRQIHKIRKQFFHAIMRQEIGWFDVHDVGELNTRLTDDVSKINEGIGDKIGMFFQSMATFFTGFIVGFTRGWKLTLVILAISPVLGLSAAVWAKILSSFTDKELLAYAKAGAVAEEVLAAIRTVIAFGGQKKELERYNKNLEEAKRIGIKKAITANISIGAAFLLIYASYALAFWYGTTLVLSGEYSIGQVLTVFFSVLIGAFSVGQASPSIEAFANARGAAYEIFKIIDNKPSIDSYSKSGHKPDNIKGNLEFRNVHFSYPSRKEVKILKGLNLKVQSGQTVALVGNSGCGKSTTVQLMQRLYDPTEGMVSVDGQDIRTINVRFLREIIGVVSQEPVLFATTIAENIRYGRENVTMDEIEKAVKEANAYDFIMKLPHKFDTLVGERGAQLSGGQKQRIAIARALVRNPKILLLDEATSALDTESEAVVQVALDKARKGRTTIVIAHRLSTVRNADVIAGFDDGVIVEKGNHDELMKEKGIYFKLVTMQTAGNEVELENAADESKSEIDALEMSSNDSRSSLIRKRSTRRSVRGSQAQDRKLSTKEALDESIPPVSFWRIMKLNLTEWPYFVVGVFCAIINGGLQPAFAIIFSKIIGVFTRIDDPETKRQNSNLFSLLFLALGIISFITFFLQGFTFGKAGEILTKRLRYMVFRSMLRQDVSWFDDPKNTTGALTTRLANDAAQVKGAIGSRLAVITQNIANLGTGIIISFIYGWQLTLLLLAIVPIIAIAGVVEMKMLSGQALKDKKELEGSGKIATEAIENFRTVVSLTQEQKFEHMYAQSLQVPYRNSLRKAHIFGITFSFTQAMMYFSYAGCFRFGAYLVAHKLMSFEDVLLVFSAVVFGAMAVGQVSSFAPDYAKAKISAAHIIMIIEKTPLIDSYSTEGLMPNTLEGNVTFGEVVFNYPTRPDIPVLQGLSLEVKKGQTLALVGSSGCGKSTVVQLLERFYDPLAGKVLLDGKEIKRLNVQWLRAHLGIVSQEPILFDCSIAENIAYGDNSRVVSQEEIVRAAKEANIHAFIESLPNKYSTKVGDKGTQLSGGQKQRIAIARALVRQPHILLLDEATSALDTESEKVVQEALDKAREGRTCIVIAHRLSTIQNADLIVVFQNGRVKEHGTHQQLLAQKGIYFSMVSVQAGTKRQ

## Cc1nc(Nc2ncc(C(=O)Nc3c(C)cccc3Cl)s2)cc(N2CCN(CCO)CC2)n1 [dasatinib, N-(2-chloro-6-methylphenyl)-2-[[6-[4-(2-hydroxyethyl)-1-piperazinyl]-2-methyl-4-pyrimidinyl]amino]-5-thiazolecarboxamide]
[1]
  serum levels: adequate
35-120 mg BID cohorts
  maximum tolerated dose: not defined
AP (N = 11), patients n (%)
  Diarrhea, Grade 1-4: 5 (45)
  Dyspnea/Pulmonary edema, Grade 1-4: 3 (27)
  Flushing, Grade 1-4: 3 (27)
  Generalized edema, Grade 1-4: 1 (9)
  Headache, Grade 1-4: 3 (27)
  Nausea, Grade 1-4: 1 (9)
  On-Study Myelosuppression: ANC, Grade 3: 3 (27)
  On-Study Myelosuppression: Platelets, Grade 3: 3 (27)
  Periorbital edema, Grade 1-4: 1 (9)
  Peripheral edema, Grade 1-4: 3 (27)
  Rash, Grade 1-4: 5 (45)
  Vomiting, Grade 1-4: 1 (9)
[5]
  Elevated ALT, Grade 1-4: 8 (73)
  Elevated ALT, Grade 3-4: 1 (9)
  Elevated AST, Grade 1-4: 7 (64)
  Elevated Total bilirubin, Grade 1-4: 2 (18)
  Elevated creatinine, Grade 1-4: 2 (18)
  Hypocalcemia, Grade 1-4: 8 (73)
  Hypocalcemia, Grade 3-4: 2 (18)
  Hypomagnesemia, Grade 1-4: 5 (45)
AP, 9/11 patients
  Grade 3 or 4 neutropenia on treatment: 82%
  grade 3/4 thrombocytopenia: 82%
[6]
  On-Study Myelosuppression: ANC, Grade 4: 6 (55)
  On-Study Myelosuppression: Platelets, Grade 4: 6 (55)
[7]
  Diarrhea, Grade 1-4: 2 (20)
  Dyspnea/Pulmonary edema, Grade 1-4: 1 (10)
  Generalized edema, Grade 1-4: 1 (10)
  Nausea, Grade 1-4: 1 (10)
  Periorbital edema, Grade 1-4: 1 (10)
  Peripheral edema, Grade 1-4: 1 (10)
  Pleural effusion, Grade 1-4: 2 (20)
  Rash, Grade 1-4: 1 (10)
  Vomiting, Grade 1-4: 1 (10)
[8]
  Elevated ALT, Grade 1-4: 7 (70)
  Elevated AST, Grade 1-4: 9 (90)
  Elevated Total bilirubin, Grade 1-4: 5 (50)
  Elevated creatinine, Grade 1-4: 6 (60)
  Hypocalcemia, Grade 1-4: 7 (70)
  Hypocalcemia, Grade 3-4: 3 (30)
  Hypomagnesemia, Grade 1-4: 3 (30)
[9]
  On-Study Myelosuppression: ANC, Grade 3: 2 (20)
  On-Study Myelosuppression: ANC, Grade 4: 6 (60)
  On-Study Myelosuppression: Platelets, Grade 3: 0
  On-Study Myelosuppression: Platelets, Grade 4: 7 (70)
LBC/Ph+ ALL, 7/10 patients
  grade 3/4 thrombocytopenia: 70%
LBC/Ph+ ALL, 8/10 patients
  Grade 3 or 4 neutropenia on treatment: 80%
MBC (N = 23), patients n (%)
  Diarrhea, Grade 1-4: 5 (22)
  Diarrhea, Grade 3-4: 1 (4)
  Dyspnea/Pulmonary edema, Grade 1-4: 2 (9)
  Dyspnea/Pulmonary edema, Grade 3-4: 2 (9)
  Flushing, Grade 1-4: 1 (4)
  Headache, Grade 1-4: 1 (4)
  Nausea, Grade 1-4: 4 (17)
  On-Study Myelosuppression: ANC, Grade 3: 2 (9)
  On-Study Myelosuppression: ANC, Grade 4: 20 (87)
  On-Study Myelosuppression: Platelets, Grade 3: 2 (9)
  On-Study Myelosuppression: Platelets, Grade 4: 17 (74)
  Pericardial effusion, Grade 1-4: 3 (13)
  Pericardial effusion, Grade 3-4: 2 (9)
  Periorbital edema, Grade 1-4: 2 (9)
  Peripheral edema, Grade 1-4: 5 (22)
  Pleural effusion, Grade 1-4: 8 (35)
  Pleural effusion, Grade 3-4: 3 (13)
  Rash, Grade 1-4: 2 (9)
  Rectal hemorrhage, Grade 1-4: 2 (9)
  Rectal hemorrhage, Grade 3-4: 2 (9)
  Tumor lysis syndrome, Grade 1-4: 2 (9)
  Tumor lysis syndrome, Grade 3-4: 2 (9)
  Vomiting, Grade 1-4: 2 (9)
[10]
  Elevated ALT, Grade 1-4: 13 (57)
  Elevated AST, Grade 1-4: 13 (57)
  Elevated Total bilirubin, Grade 1-4: 10 (43)
  Elevated Total bilirubin, Grade 3-4: 4 (17)
  Elevated creatinine, Grade 1-4: 12 (52)
  Hypocalcemia, Grade 1-4: 21 (91)
  Hypocalcemia, Grade 3-4: 6 (26)
  Hypomagnesemia, Grade 3-4: 1 (4)
MBC, 19/23 patients
  grade 3/4 thrombocytopenia: 83%
MBC, 22/23 patients
  Grade 3 or 4 neutropenia on treatment: 96%
Advanced phase CML patients
  severe (grade 4) myelosuppression: about 70%
All patients
  patients removed from the study due to a drug-related toxicity: no patient
All patients, 9/44
  Grade 3/4 non-hematologic adverse events: 20%
Often in the absence of other edema
  non-malignant pleural effusions: 10 patients
[2]
  substrate for p-glycoprotein: not a substrate
[3]; AP CML n = 11
  Hematologic response: CHR: 5 (45)
  Hematologic response: Major HR: 9 (81)
  Hematologic response: NEL: 4 (36)
[3]; AP cohort, 9/11, median of 8 months (range 2-13 months)
  patients who achieved a major HR remain on study: 81%
[3]; AP patients, 6
  major HR confirmed after 4 weeks: 55%
[3]; AP patients, 9/11
  major HR: 81%
[3]; LBC-CML/ALL n = 10
  Hematologic response: CHR: 7 (70)
  Hematologic response: Major HR: 8 (80)
  Hematologic response: NEL: 1 (10)
[3]; LBC/Ph+ ALL, 5
  major HR confirmed after 4 weeks: 50%
[3]; LBC/Ph+ ALL, 8/10
  major HR rate: 80%
[3]; MBC patients, 7
  major HR confirmed after 4 weeks: 30%
[3]; MBC patients, 14/23
  major HR: 61%
[3]; MBC, 6 of 23, follow-up ranging 5-12 months
  patients who remain on the study: 26%
[3]; MBC-CML n = 23
  Hematologic response: CHR: 8 (35)
  Hematologic response: Major HR: 14 (61)
  Hematologic response: Minor HR: 4 (17)
  Hematologic response: NEL: 6 (26)
[3]; Nine of the 44 patients
  patients who failed to meet the criteria for major or minor hematologic response: 20%
[3]; Total N = 44
  Hematologic response: CHR: 20 (45)
  Hematologic response: Major HR: 31 (70)
  Hematologic response: Minor HR: 4 (9)
  Hematologic response: NEL: 11 (25)
[3]; complex karyotypes, 17 of 25 patients
  patients who responded: 68%
[3]; lymphoid blast crisis or Ph+ ALL
  relapsed within 6 months: all but one patient
[3]; of the 8 Myeloid BC patients who achieved CHR
  patients with durable responses for 10 months or longer: 3
[3]; simple Ph karyotypes, 17 of 18 patients
  patients who responded: 94%
[3]; total patient population, 20/44
  CHR: 45%
[3]; total patient population, 31/44
  major HR: 70%
[4]; AP CML n = 11
  Cytogenetic response: CCyR: 2 (18)
  Cytogenetic response: Major CyR: 3 (27)
  Cytogenetic response: Minimal CyR: 1 (9)
  Cytogenetic response: Overall CyR: 4 (36)
  Cytogenetic response: PCyR: 1 (9)
[4]; AP patients, 3/11
  Major cytogenetic responses: 27%
[4]; LBC-CML/ALL n = 10
  Cytogenetic response: CCyR: 3 (30)
  Cytogenetic response: Major CyR: 8 (80)
  Cytogenetic response: Minor CyR: 1 (10)
  Cytogenetic response: Overall CyR: 9 (90)
  Cytogenetic response: PCyR: 5 (50)
[4]; LBC/Ph+ ALL patients, 8/10
  MCyR rate: 80%
[4]; LBC/Ph+ ALL patients, 9/10
  overall cytogenetic response rate: 90%
[4]; MBC patients, 12/23
  Cytogenetic responses: 52%
[4]; MBC-CML n = 23
  Cytogenetic response: CCyR: 6 (26)
  Cytogenetic response: Major CyR: 8 (35)
  Cytogenetic response: Minimal CyR: 2 (9)
  Cytogenetic response: Minor CyR: 2 (9)
  Cytogenetic response: Overall CyR: 12 (52)
  Cytogenetic response: PCyR: 2 (9)
[4]; Total N = 44
  Cytogenetic response: CCyR: 11 (25)
  Cytogenetic response: Major CyR: 19 (43)
  Cytogenetic response: Minimal CyR: 3 (7)
  Cytogenetic response: Minor CyR: 3 (7)
  Cytogenetic response: Overall CyR: 25 (57)
  Cytogenetic response: PCyR: 8 (18)
[4]; total patient population, 11/44
  CCyR: 25%
[4]; total patient population, 19/44
  major CyR (CCyR plus PCyR): 43%
[4]; total patient population, 25/44
  CyR: 57%
